pIC50: −log10 of the molar value.
The molecules below were run against Glycogen synthase kinase-3 beta (Oryctolagus cuniculus) (assay: Inhibitory concentration against rabbit glycogen synthase kinase-3 beta using protein phosphatase inhibitor-2 as substrate).

| SMILES | pIC50 |
| --- | --- |
| O=C1NC(=O)C(c2cn(CCCO)c3ncccc23)=C1c1cccc2ccccc12 [3-[1-(3-Hydroxy-propyl)-1H-pyrrolo[2,3-b]pyridin-3-yl]-4-naphthalen-1-yl-pyrrole-2,5-dione] | 7.51 |
| COc1ccccc1C1=C(c2cn(CCCNS(C)(=O)=O)c3ncccc23)C(=O)NC1=O [N-(3-{3-[4-(2-Methoxy-phenyl)-2,5-dioxo-2,5-dihydro-1H-pyrrol-3-yl]-pyrrolo[2,3-b]pyridin-1-yl}-propyl)-methanesulfonamide] | 7.85 |
| O=C1NC(=O)C(c2cn(CCCO)c3ncccc23)=C1c1ccccn1 [3-[1-(3-Hydroxy-propyl)-1H-pyrrolo[2,3-b]pyridin-3-yl]-4-pyridin-2-yl-pyrrole-2,5-dione] | 6.32 |
| COc1ccccc1C1=C(c2cn(CCCNC=O)c3ncccc23)C(=O)NC1=O [N-(3-{3-[4-(2-Methoxy-phenyl)-2,5-dioxo-2,5-dihydro-1H-pyrrol-3-yl]-pyrrolo[2,3-b]pyridin-1-yl}-propyl)-formamide] | 8.10 |

Now from value to molecule:

| pIC50 | SMILES |
| --- | --- |
| 8.22 | O=C1NC(=O)C(c2cn(CCCO)c3ncccc23)=C1c1ccc(F)cc1Cl [3-(2-Chloro-4-fluoro-phenyl)-4-[1-(3-hydroxy-propyl)-1H-pyrrolo[2,3-b]pyridin-3-yl]-pyrrole-2,5-dione] |
| 7.19 | CCn1cc(C2=C(c3cn(CCCO)c4ncccc34)C(=O)NC2=O)c2cccnc21 [3-(1-Ethyl-1H-pyrrolo[2,3-b]pyridin-3-yl)-4-[1-(3-hydroxy-propyl)-1H-pyrrolo[2,3-b]pyridin-3-yl]-pyrrole-2,5-dione] |
| 7.70 | COc1ccccc1C1=C(c2cn(CCCNS(N)(=O)=O)c3ncccc23)C(=O)NC1=O [3-(7-Azaindolyl)-4-arylmaleimide analogue] |
